Where two headings read alike, the source gives them in different places.
What was measured:
E. faecalis ATCC 29212 = experiment: Checkerboard microdilution MIC with PFOB, Table 2; type: cell-based; settings: E. faecalis ATCC 29212; for MIC of partner antibiotic in the presence of PFOB at 0.5 mg/L: PFOB 0.5 mg/L; for MIC of partner antibiotic in the presence of PFOB at 1 mg/L: PFOB 1 mg/L; for MIC of partner antibiotic in the presence of PFOB at 2 mg/L: PFOB 2 mg/L; for MIC of partner antibiotic in the presence of PFOB at 4 mg/L: PFOB 4 mg/L; for MIC of partner antibiotic in the presence of PFOB at 8 mg/L: PFOB 8 mg/L; for MIC of partner antibiotic in the presence of PFOB at 16 mg/L: PFOB 16 mg/L; for MIC of partner antibiotic in the presence of PFOB at 32 mg/L: PFOB 32 mg/L; for MIC: Enterococcus faecalis, ATCC29212, partner antibiotic alone, read-out: MIC (alone) of Partner; for Synergy FIC: FIC index of PFOB + labelled partner, <0.5 = synergy; for MIC of PFOB & Partner: Partner concentration: optimum synergistic combination with PFOB, second figure (partner)
Description: (§1) The aim of the study was to detect any synergy between PFOB and the other antibiotics. For the purposes of the study, synergy was defined in accordance with the FIC (fractional inhibitory concentration) index, as disclosed by Lorian (1991, In “Antibiotics in Laboratory Medicine” 3rd edition, Eds. Williams & Wilkins; esp. p 434-443). In essence, if the combination of test compounds gives at least a 4-fold reduction in the FIC value for each compound, then a synergy may be considered to exist (i.e. FIC of the combination <0.5=synergy; FIC 0.5-2.0=“indifference”; and FIC >2=antagonism).
(§2) In Table 2, results in the checkerboard indicating synergy are hatched, and specific optimum synergistic combinations are boxed.

E. faecalis 5659 (vanA) = experiment: Checkerboard microdilution MIC with PFOB, Table 2; type: cell-based; settings: E. faecalis 5659 (vanA); for MIC of partner antibiotic in the presence of PFOB at 0.5 mg/L: PFOB 0.5 mg/L; for MIC of partner antibiotic in the presence of PFOB at 1 mg/L: PFOB 1 mg/L; for MIC of partner antibiotic in the presence of PFOB at 2 mg/L: PFOB 2 mg/L; for MIC of partner antibiotic in the presence of PFOB at 4 mg/L: PFOB 4 mg/L; for MIC of partner antibiotic in the presence of PFOB at 8 mg/L: PFOB 8 mg/L; for MIC of partner antibiotic in the presence of PFOB at 16 mg/L: PFOB 16 mg/L; for MIC of partner antibiotic in the presence of PFOB at 32 mg/L: PFOB 32 mg/L; for MIC: Enterococcus faecalis, partner antibiotic alone, read-out: MIC (alone) of Partner
Description: as §1, §2

E.faecalis 78097 (van B) = experiment: Checkerboard microdilution MIC with PFOB, Table 2; type: cell-based; settings: E.faecalis 78097 (van B); for MIC of partner antibiotic in the presence of PFOB at 0.5 mg/L: PFOB 0.5 mg/L; for MIC of partner antibiotic in the presence of PFOB at 1 mg/L: PFOB 1 mg/L; for MIC of partner antibiotic in the presence of PFOB at 2 mg/L: PFOB 2 mg/L; for MIC of partner antibiotic in the presence of PFOB at 4 mg/L: PFOB 4 mg/L; for MIC of partner antibiotic in the presence of PFOB at 8 mg/L: PFOB 8 mg/L; for MIC of partner antibiotic in the presence of PFOB at 16 mg/L: PFOB 16 mg/L; for MIC of partner antibiotic in the presence of PFOB at 32 mg/L: PFOB 32 mg/L; for MIC: Enterococcus faecalis, partner antibiotic alone, read-out: MIC (alone) of Partner
Description: as §1, §2

E. faecalis ATCC 10541 = experiment: Checkerboard microdilution MIC with PFOB, Table 2; type: cell-based; settings: E. faecalis ATCC 10541; for Synergy FIC: FIC index of PFOB + labelled partner, <0.5 = synergy; for MIC of partner antibiotic in the presence of PFOB at 0.5 mg/L: PFOB 0.5 mg/L; for MIC of partner antibiotic in the presence of PFOB at 1 mg/L: PFOB 1 mg/L; for MIC of partner antibiotic in the presence of PFOB at 2 mg/L: PFOB 2 mg/L; for MIC of partner antibiotic in the presence of PFOB at 16 mg/L: PFOB 16 mg/L; for MIC of partner antibiotic in the presence of PFOB at 32 mg/L: PFOB 32 mg/L; for MIC: Enterococcus faecalis, ATCC10541; for MIC of partner antibiotic in the presence of PFOB at 4 mg/L: PFOB 4 mg/L; for MIC of partner antibiotic in the presence of PFOB at 8 mg/L: PFOB 8 mg/L
Description: The aim of the study was to detect any synergy between PFOB and the other antibiotics. For the purposes of the study, synergy was defined in accordance with the FIC (fractional inhibitory concentration) index, as disclosed by Lorian (1991, In “Antibiotics in Laboratory Medicine” 3rd edition, Eds. Williams & Wilkins; esp. p 434-443).

enterococci = experiment: Checkerboard study, synergy summary of Example 2; type: cell-based, Enterococcus; settings: in words
Description: as §1

[1] = partner antibiotic alone, read-out: MIC (alone) of Partner

| Structure (SMILES) | MIC of partner antibiotic in the presence of PFOB at 0.5 mg/L (E. faecalis ATCC 29212) [µg/mL] | MIC of partner antibiotic in the presence of PFOB at 1 mg/L (E. faecalis ATCC 29212) [µg/mL] | MIC of partner antibiotic in the presence of PFOB at 2 mg/L (E. faecalis ATCC 29212) [µg/mL] | MIC of partner antibiotic in the presence of PFOB at 4 mg/L (E. faecalis ATCC 29212) [µg/mL] | MIC of partner antibiotic in the presence of PFOB at 8 mg/L (E. faecalis ATCC 29212) [µg/mL] | MIC of partner antibiotic in the presence of PFOB at 16 mg/L (E. faecalis ATCC 29212) [µg/mL] | MIC of partner antibiotic in the presence of PFOB at 32 mg/L (E. faecalis ATCC 29212) [µg/mL] | MIC (E. faecalis ATCC 29212) [µg/mL] | MIC of partner antibiotic in the presence of PFOB at 0.5 mg/L (E. faecalis 5659 (vanA)) [µg/mL] | MIC of partner antibiotic in the presence of PFOB at 1 mg/L (E. faecalis 5659 (vanA)) [µg/mL] | MIC of partner antibiotic in the presence of PFOB at 2 mg/L (E. faecalis 5659 (vanA)) [µg/mL] | MIC of partner antibiotic in the presence of PFOB at 4 mg/L (E. faecalis 5659 (vanA)) [µg/mL] | MIC of partner antibiotic in the presence of PFOB at 8 mg/L (E. faecalis 5659 (vanA)) [µg/mL] | MIC of partner antibiotic in the presence of PFOB at 32 mg/L (E. faecalis 5659 (vanA)) [µg/mL] | MIC (E. faecalis 5659 (vanA)) [µg/mL] | MIC of partner antibiotic in the presence of PFOB at 0.5 mg/L (E.faecalis 78097 (van B)) [µg/mL] | MIC of partner antibiotic in the presence of PFOB at 1 mg/L (E.faecalis 78097 (van B)) [µg/mL] | MIC of partner antibiotic in the presence of PFOB at 2 mg/L (E.faecalis 78097 (van B)) [µg/mL] | MIC of partner antibiotic in the presence of PFOB at 4 mg/L (E.faecalis 78097 (van B)) [µg/mL] | MIC of partner antibiotic in the presence of PFOB at 8 mg/L (E.faecalis 78097 (van B)) [µg/mL] | other results |
| --- | --- | --- | --- | --- | --- | --- | --- | --- | --- | --- | --- | --- | --- | --- | --- | --- | --- | --- | --- | --- | --- |
| CC1(C)S[C@@H]2[C@H](NC(=O)[C@H](N)c3ccccc3)C(=O)N2[C@H]1C(=O)O [Ampicillin, ampicillin] | 1 | 1 | 1 | 1 | 1 | 1 | <0.03 | 0.5 | 2 | 2 | 2 | 2 | 1 | 0.25 | 1 | 0.5 | 0.5 | 0.5 | 0.5 | 0.5 | MIC of partner antibiotic in the presence of PFOB at 16 mg/L (E. faecalis 5659 (vanA)): 1 µg/mL; MIC of partner antibiotic in the presence of PFOB at 16 mg/L (E.faecalis 78097 (van B)): 0.5 µg/mL; MIC of partner antibiotic in the presence of PFOB at 32 mg/L (E.faecalis 78097 (van B)): 0.5 µg/mL; MIC (E.faecalis 78097 (van B)): 1 µg/mL; Synergy FIC (E. faecalis ATCC 10541): 0.253; MIC of partner antibiotic in the presence of PFOB at 0.5 mg/L (E. faecalis ATCC 10541): 0.25 µg/mL; MIC of partner antibiotic in the presence of PFOB at 1 mg/L (E. faecalis ATCC 10541): 0.25 µg/mL; MIC of partner antibiotic in the presence of PFOB at 2 mg/L (E. faecalis ATCC 10541): 0.25 µg/mL; MIC of partner antibiotic in the presence of PFOB at 16 mg/L (E. faecalis ATCC 10541): 0.06 µg/mL; MIC of partner antibiotic in the presence of PFOB at 32 mg/L (E. faecalis ATCC 10541): <0.03 µg/mL; MIC (E. faecalis ATCC 10541; [1]): 1 µg/mL; synergy with PFOB (enterococci): less marked, but still significant, synergy |
| CO/N=C(\C(=O)N[C@@H]1C(=O)N2C(C(=O)O)=C(COC(N)=O)CS[C@H]12)c1ccco1 [Cefuroxime, cefuroxime] | >64 | >64 | 32 | 8 | 4 | 1 | <0.06 | 32 | >64 | >64 | >64 | >64 | >64 | 0.5 | > 64 | 64 | 8 | 8 | 8 | 4 | Synergy FIC (E. faecalis ATCC 29212): 0.156; MIC of PFOB & Partner: Partner concentration (E. faecalis ATCC 29212): 1 µg/mL; MIC of partner antibiotic in the presence of PFOB at 16 mg/L (E. faecalis 5659 (vanA)): >64 µg/mL; Synergy FIC (E.faecalis 78097 (van B); FIC index of PFOB + labelled partner, <0.5 = synergy): 0.07; MIC of partner antibiotic in the presence of PFOB at 16 mg/L (E.faecalis 78097 (van B)): 1 µg/mL; MIC of partner antibiotic in the presence of PFOB at 32 mg/L (E.faecalis 78097 (van B)): 0.5 µg/mL; MIC of PFOB & Partner: Partner concentration (E.faecalis 78097 (van B); optimum synergistic combination with PFOB, second figure (partner)): 8 µg/mL; MIC (E.faecalis 78097 (van B)): > 64 µg/mL; Synergy FIC (E. faecalis ATCC 10541): 0.067; MIC of partner antibiotic in the presence of PFOB at 0.5 mg/L (E. faecalis ATCC 10541): >64 µg/mL; MIC of partner antibiotic in the presence of PFOB at 1 mg/L (E. faecalis ATCC 10541): >64 µg/mL; MIC of partner antibiotic in the presence of PFOB at 2 mg/L (E. faecalis ATCC 10541): >64 µg/mL; MIC of partner antibiotic in the presence of PFOB at 4 mg/L (E. faecalis ATCC 10541): 8 µg/mL; MIC of partner antibiotic in the presence of PFOB at 8 mg/L (E. faecalis ATCC 10541): 0.5 µg/mL; MIC of partner antibiotic in the presence of PFOB at 16 mg/L (E. faecalis ATCC 10541): <0.06 µg/mL; MIC of partner antibiotic in the presence of PFOB at 32 mg/L (E. faecalis ATCC 10541): <0.06 µg/mL; MIC (E. faecalis ATCC 10541; optimum synergistic combination of PFOB with the labelled partner, first figure (PFOB), read-out: MIC of PFOB & Partner: PFOB concentration): 8 µg/mL; MIC (E. faecalis ATCC 10541; optimum synergistic combination with PFOB, second figure (partner), read-out: MIC of PFOB & Partner: Partner concentration): 0.5 µg/mL; MIC (E. faecalis ATCC 10541; [1]): > 64 µg/mL |
| C[C@@H](O)[C@H]1C(=O)N2C(C(=O)O)=C(SCCN=CN)C[C@H]12 [Imipenem, imipenem] | 0.5 | 0.5 | 0.5 | 0.25 | 0.125 | 0.125 | <0.03 | 0.5 | 1 | 1 | 1 | 1 | 1 | 0.25 | 0.25 | 1 | 1 | 1 | 1 | 1 | Synergy FIC (E. faecalis ATCC 29212): 0.375; MIC of PFOB & Partner: Partner concentration (E. faecalis ATCC 29212): 0.12 µg/mL; MIC of partner antibiotic in the presence of PFOB at 16 mg/L (E.faecalis 78097 (van B)): 1 µg/mL; MIC of partner antibiotic in the presence of PFOB at 32 mg/L (E.faecalis 78097 (van B)): 1 µg/mL; MIC (E.faecalis 78097 (van B)): 0.5 µg/mL; MIC of partner antibiotic in the presence of PFOB at 0.5 mg/L (E. faecalis ATCC 10541): 1 µg/mL; MIC of partner antibiotic in the presence of PFOB at 1 mg/L (E. faecalis ATCC 10541): 1 µg/mL; MIC of partner antibiotic in the presence of PFOB at 2 mg/L (E. faecalis ATCC 10541): 1 µg/mL; MIC of partner antibiotic in the presence of PFOB at 4 mg/L (E. faecalis ATCC 10541): 1 µg/mL; MIC of partner antibiotic in the presence of PFOB at 8 mg/L (E. faecalis ATCC 10541): 0.25 µg/mL; MIC of partner antibiotic in the presence of PFOB at 16 mg/L (E. faecalis ATCC 10541): 0.125 µg/mL; MIC of partner antibiotic in the presence of PFOB at 32 mg/L (E. faecalis ATCC 10541): <0.03 µg/mL; MIC (E. faecalis ATCC 10541; [1]): 1 µg/mL |
